The subject of assay [1] is CaCO2 cell monolayer. As to the kind of experiment: Permeability of a CaCO2 cell monolayer to a gliadin fragment. Type of assay: cell-based. The source says:
(§1) The inventors have discovered that peripheral blood mononuclear cells (PBMCs) secrete signals that increase epithelial monolayer permeability on response to stimulation with lipopolysaccharide […] and pepsin/trypsin treated gliadin (PTG). These secreted signals are present in PBMC culture supernatant, and they increase permeability of CaCO2 cell monolayers to Lucifer yellow when presented to the basolateral aspect of these cells. These permeability changes are inhibited by treatment of the cells with peptide permeability inhibitors of the invention (FIGS. 5A, 5B, 6A, 6B, 7A, 7B, 8A and 8B). The inventors have also discovered that specific peptides within the PTG mixture are capable of crossing epithelial cell monolayers in vitro, and that this peptide specific mechanism can be inhibited by peptide permeability inhibitors of the invention (FIGS. 3 and 4).
Background: Caco-2 cells form a polarised layer with tight junctions and transporters.

In assay [2] the test system is CaCO2 cells. As to the kind of experiment: Lucifer yellow permeability of CaCO2 cells exposed basolaterally to PBMC culture supernatants. Type of assay: cell-based. The following applies: donors 00022, 00023, 00064, 00065; for Effect on baseline permeability to Lucifer yellow: control and untreated PBMC supernatant, measured after 72 hours; for Effect on permeability changes induced by LPS treated PBMC supernatant / Effect on permeability changes induced by PTG treated PBMC supernatant: Lucifer yellow measured after 72 hours. The method, then: After formation of tight junctions CaCO2 cells were exposed basolaterally to control supernatant (control), untreated PBMC supernatant (PBMC sup), LPS treated PBMC supernatant (PBMC-LPS) and PTG treated PBMC supernatant (PBMC-PTG). Lucifer yellow permeability was measured after 72 hours (day 3).
After formation of tight junctions CaCO2 cells were exposed basolaterally to PBMC supernatants as described above. […]
as §1

The test system of assay [3] is PBMCs. As to the kind of experiment: Cytokine expression in PBMCs treated with PTG or LPS (ELISA). Type of assay: cell-based, human. The following applies: PTG 1 mg/ml or LPS 1 μg/ml. The method, then:
PBMCs were suspended in RPMI medium supplemented with 5% heat inactivated human AB serum, and 2×10^5 cells were plated in each well of a 96 well plate. Cells were incubated at 37° C. with PTG (1 mg/ml) or LPS (1 μg/ml) in the presence or absence of test compounds being examined for the ability to suppress cytokine production. Supernatant samples were harvested following treatment, and cytokines were assayed by ELISA (R&D Systems).

Assay [4] deals with intestinal tissue. The following applies: ex vivo human tissue and mice; background section; cited from earlier work.
[5] abbreviates: inhibitor added apically after 48 hours (day 2).
Setting [6] is: inhibitor added apically on day 0.

Ends that are not written are not given here. * marks the point of attachment. FITC = O=C1OC2(c3ccc(O)cc3Oc3cc(O)ccc32)c2ccc(NC(=S)*)cc21

Take GGVLVQPG [SEQ ID NO:1]: the “Effect on increase in permeability to gliadin peptide PYPQPQLPY (SEQ ID NO:163)” value in assay [1] (FIG. 3, apical exposure to gliadin peptide, apical treatment with inhibitor) is recorded as “blocked”. Also, the “Effect on increase in permeability induced by gliadin peptide” value in assay [1] (FIG. 4, apical exposure to FITC-C6-PYPQPQLPY, 13-mer gliadin peptide SEQ ID NO:164 named in legend) is recorded as “blocked”. Besides, in assay [2] (setting [5]), the “Effect on baseline permeability to Lucifer yellow” value was “abolished”, the “Effect on permeability changes induced by LPS treated PBMC supernatant” value is “significantly reduced” and the “Effect on permeability changes induced by PTG treated PBMC supernatant” value was “significantly reduced”. In assay [2] (setting [6]), the “Effect on baseline permeability to Lucifer yellow” value is “abolished”, the “Effect on permeability changes induced by LPS treated PBMC supernatant” value is “no significant effect” and the “Effect on permeability changes induced by PTG treated PBMC supernatant” value is listed as “no significant effect”. Moreover, in assay [3], the “Effect on expression of IL-6, IL-8, MIP-1α and Gro-α induced by LPS and PTG” value was “not reduced”; the “Effect on increased expression of GM-CSF and IL-16 induced by LPS and PTG” value is reported as “inhibited”. In assay [4], the “Gliadin induced reduction in intestinal Rt (resistance)” value was “inhibits” and the “Peak of F-actin increment induced by gliadin” value is on record as “blocks”.

On to “PYPQPQLPY (listed as Triticum sp.) [SEQ ID NO:163, gliadin peptide]”, for which the “Permeability of the monolayer to the gliadin peptide” value in assay [1] (FIG. 3, apical exposure of the monolayer to the gliadin peptide) is on record as “increase in permeability”.

Turning to “FITC-C6-PYPQPQLPY ({FITC-C6}-PYPQPQLPY) [gliadin peptide, FITC-labelled, reference compound]”, in assay [1] (FIG. 4, apical exposure of the monolayer to the gliadin peptide), the “Permeability of the monolayer” value is “increase in permeability”.
